Test results from patent US9663510B2, “Substituted triazolopyridines and their use as TTK inhibitors” (Bayer Intellectual Property GmbH, priority 2011, dated 2017).
Like-named read-outs stand apart in the source and are kept apart here.

Legend:
[1] = Metabolic stability in vitro, dog liver microsomes (calculation of Fmax); format: in vitro ADME; details: maximal oral bioavailability calculated from microsomal half-life, 1 μM
Protocol: (§1) The metabolic stability of test compounds in vitro was determined by incubating them at 1 μM with a suspension liver microsomes in 100 mM phosphate buffer, pH7.4 (NaH2PO4×H2O+Na2HPO4×2H2O) at a protein concentration of 0.5 mg/mL and at 37° C. The reaction was activated by adding a co-factor mix containing 1.2 mg NADP, 3 IU glucose-6-phosphate dehydrogenase, 14.6 mg glucose-6-phosphate and 4.9 mg MgCl2 in phosphate buffer, pH 7.4. Organic solvent in the incubations was limited to <0.2% dimethylsulfoxide (DMSO) and <1% methanol. During incubation, the microsomal suspensions were continuously shaken and aliquots were taken at 2, 8, 16, 30, 45 and 60 min, to which equal volumes of cold methanol were immediately added. Samples were frozen at −20° C. over night, subsequently centrifuged for 15 minutes at 3000 rpm and the supernatant was analyzed with an Agilent 1200 HPLC-system with LCMS/MS detection.
(§2) The half-life of a test compound was determined from the concentration-time plot. From the half-life the intrinsic clearances were calculated. Together with the additional parameters liver blood flow, specific liver weight and microsomal protein content the hepatic in vivo blood clearance (CL) and the maximal oral bioavailability (Fmax) were calculated for the different species. The following parameter values were used: Liver blood flow—1.3 L/h/kg (human), 2.1 L/h/kg (dog), 4.2 L/h/kg (rat); specific liver weight—21 g/kg (human), 39 g/kg (dog), 32 g/kg (rat); microsomal protein content—40 mg/g.
(§3) With the described assay only phase-I metabolism of microsomes is reflected, e.g. typically oxidoreductive reactions by cytochrome P450 enzymes and flavin mono-oxygenases (FMO) and hydrolytic reactions by esterases (esters and amides).

[2] = test system: HeLa human cervical tumor cells; assay: HeLa cell proliferation assay (crystal violet); format: cell-based; details: 96 h, 4 days incubation, read-out: Inhibition of cell proliferation, cell Line: HeLa IC50
human kinase Mps-1 = human kinase Mps-1 (Homo sapiens (Human), UniProt P33981); assay: Mps-1 kinase assay (TR-FRET); format: biochemical
Sequence of human kinase Mps-1 (P33981 whole entry): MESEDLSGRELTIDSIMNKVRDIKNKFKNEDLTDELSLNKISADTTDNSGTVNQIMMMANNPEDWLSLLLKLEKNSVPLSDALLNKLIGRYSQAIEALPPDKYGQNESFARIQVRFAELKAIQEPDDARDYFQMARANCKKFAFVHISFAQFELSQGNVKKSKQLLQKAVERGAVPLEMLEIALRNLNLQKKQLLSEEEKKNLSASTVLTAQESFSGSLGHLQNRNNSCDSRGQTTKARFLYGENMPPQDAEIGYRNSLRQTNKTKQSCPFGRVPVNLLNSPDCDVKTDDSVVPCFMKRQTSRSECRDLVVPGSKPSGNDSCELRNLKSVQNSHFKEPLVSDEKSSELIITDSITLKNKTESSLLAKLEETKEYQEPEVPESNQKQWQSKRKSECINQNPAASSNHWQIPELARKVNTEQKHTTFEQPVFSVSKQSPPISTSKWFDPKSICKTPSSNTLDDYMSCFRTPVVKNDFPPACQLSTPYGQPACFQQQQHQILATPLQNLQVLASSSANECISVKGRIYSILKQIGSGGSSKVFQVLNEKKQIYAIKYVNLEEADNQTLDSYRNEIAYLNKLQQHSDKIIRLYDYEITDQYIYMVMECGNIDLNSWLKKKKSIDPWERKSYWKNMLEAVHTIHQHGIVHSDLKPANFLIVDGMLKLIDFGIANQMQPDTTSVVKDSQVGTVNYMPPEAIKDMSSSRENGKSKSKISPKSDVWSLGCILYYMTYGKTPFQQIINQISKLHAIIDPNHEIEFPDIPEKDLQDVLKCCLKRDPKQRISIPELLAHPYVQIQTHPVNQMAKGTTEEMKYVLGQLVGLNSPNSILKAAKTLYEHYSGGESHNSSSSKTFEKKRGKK

[3] = Metabolic stability in vitro, rat liver microsomes (calculation of Fmax); format: in vitro ADME; details: maximal oral bioavailability calculated from microsomal half-life, 1 μM
Protocol: as §1, §2, §3

[4] = read-out: Mps-1 Inhibition, IC50 (Assay with 10 μM ATP), 10 μM ATP
[5] = read-out: Mps-1 Inhibition, IC50 (Assay with 2 mM ATP), 2 mM ATP

| Compound | IC50 [2] [nM] | IC50 (human kinase Mps-1; [4]) [nM] | IC50 (human kinase Mps-1; [5]) [nM] | further results |
| --- | --- | --- | --- | --- |
| N#Cc1c(F)cccc1Nc1nc2ccc(-c3ccc(NC(=O)Cc4ccc(F)cc4)cc3)cn2n1 [reference compound] | – | – | – | Dog liver microsomes; Fmax [%] [1]: 15% |
| COc1cc(N2CCOC2=O)ccc1Nc1nc2ccc(-c3ccc(NC(=O)Cc4ccc(F)cc4)cc3)cn2n1 [reference compound] | – | – | – | Dog liver microsomes; Fmax [%] [1]: 17% |
| CS(=O)(=O)c1ccc(Nc2nc3ccc(-c4ccc(NC(=O)Cc5ccc(F)cc5)cc4)cn3n2)c(OCC(F)(F)F)c1 [reference compound] | – | – | – | Dog liver microsomes; Fmax [%] [1]: 25% |
| COc1cc(C(=O)NCC(F)(F)F)ccc1Nc1nc2ccc(-c3ccc(NC(=O)Cc4ccc(F)cc4)cc3)cn2n1 [reference compound] | – | – | – | Dog liver microsomes; Fmax [%] [1]: 40% |
| C[C@@H](C(=O)Nc1ccc(-c2ccc3nc(Nc4ccc(C(=O)N5CCCC5)cc4OCC(F)(F)F)nn3c2)cc1)c1ccc(F)cc1 [Example 01.16, (2R)-2-(4-fluorophenyl)-N-[4-(2-{[4-(pyrrolidin-1-ylcarbonyl)-2-(2,2,2-trifluoroethoxyl)phenyl]amino}[1,2,4]triazolo[1,5-a]pyridin-6-yl)phenyl]propanamide] | < 100 | < 1 | – | IC50 (human kinase Mps-1; 2 mM ATP): 1.3 nM |
| C[C@@H](C(=O)Nc1ccc(-c2ccc3nc(Nc4ccc(C(=O)N5CC(F)C5)cc4OCC(F)(F)F)nn3c2)cc1)c1ccc(F)cc1 [Example01.14, (2R)—N-{4-[2-({4-[(3-fluoroazetidin-1-yl)carbonyl]-2-(2,2,2-trifluoroethoxy)phenyl}amino)[1,2,4]triazolo[1,5-a]pyridin-6-yl]phenyl}-2-(4-fluorophenyl)propanamide] | – | < 1 | < 1 | – |
| COc1cc(N2CCOC2=O)ccc1Nc1nc2ccc(-c3ccc(NC(=O)[C@H](N)c4ccc(F)cc4)cc3)cn2n1 [Example 01.20, (2R)-2-amino-2-(4-fluorophenyl)-N-[4-(2-{[2-methoxy-4-(2-oxo-1,3-oxazolidin-3-yl)phenyl]amino}[1,2,4]triazolo[1,5-a]pyridin-6-yl)phenyl]ethanamide] | < 200 | < 1 | – | IC50 (human kinase Mps-1; 2 mM ATP): 1.5 nM |
| CCOc1cc(S(C)(=O)=O)ccc1Nc1nc2ccc(-c3ccc(C(=O)NCc4ccc(F)cc4)c(C)c3)cn2n1 [reference compound] | – | – | – | Dog liver microsomes; Fmax [%] [1]: 12% |
| N[C@@H](C(=O)Nc1ccc(-c2ccc3nc(Nc4ccc(C(=O)N5CCCC5)cc4OCC(F)(F)F)nn3c2)cc1)c1ccc(F)cc1 [Example 01.25, (2R)-2-amino-2-(4-fluorophenyl)-N-[4-(2-{[4-(pyrrolidin-1-ylcarbonyl)-2-(2,2,2-trifluoroethoxyl)phenyl]amino}[1,2,4]triazolo[1,5-a]pyridin-6-yl)phenyl]ethanamide] | < 200 | < 1 | < 1 | – |
| COc1cc(C(=O)N2CCC2)ccc1Nc1nc2ccc(-c3ccc(NC(=O)[C@H](N)c4ccc(F)cc4)cc3)cn2n1 [Example 01.22, (2R)-2-amino-N-[4-(2-{[4-(azetidin-1-ylcarbonyl)-2-methoxyphenyl]amino}[1,2,4]triazolo[1,5-a]pyridin-6-yl)phenyl]-2-(4-fluorophenyl)ethanamide] | < 200 | < 1 | < 1 | – |
| COc1cc(C(=O)N2CCCC2)ccc1Nc1nc2ccc(-c3ccc(NC(=O)[C@H](N)c4ccc(F)cc4)cc3)cn2n1 [Example 01.23, (2R)-2-amino-2-(4-fluorophenyl)-N-[4-(2-{[2-methoxy-4-(pyrrolidin-1-ylcarbonyl)phenyl]amino}[1,2,4]triazolo[1,5-a]pyridin-6-yl)phenyl]ethanamide] | < 400 | < 1 | < 1 | – |
| COc1cc(C(=O)N(C)C)ccc1Nc1nc2ccc(-c3ccc(NC(=O)[C@H](C)c4ccc(F)cc4)cc3)cn2n1 [Example01.12, 4-{[6-(4-{[(2R)-2-(4-fluorophenyl)propanoyl]amino}phenyl)[1,2,4]triazolo[1,5-a]pyridin-2-yl]amino}-3-methoxy-N,N-dimethylbenzamide] | < 200 | < 1 | < 1 | – |
| COc1cc(S(C)(=O)=O)ccc1Nc1nc2ccc(-c3ccc(NC(=O)[C@H](CO)c4ccc(F)cc4)cc3)cn2n1 [Example 01.17, (2S)-2-(4-fluorophenyl)-3-hydroxy-N-[4-(2-{[2-methoxy-4-(methylsulfonyl)phenyl]amino}[1,2,4]triazolo[1,5-a]pyridin-6-yl)phenyl]propanamide] | < 600 | < 1 | – | IC50 (human kinase Mps-1; 2 mM ATP): 4.8 nM |
| C[C@@H](C(=O)Nc1ccc(-c2ccc3nc(Nc4ccc(C(=O)N5CC(O)C5)cc4OCC(F)(F)F)nn3c2)cc1)c1ccc(F)cc1 [Example01.15, (2R)-2-(4-fluorophenyl)-N-{4-[2-({4-[(3-hydroxyazetidin-1-yl)carbonyl]-2-(2,2,2-trifluoroethoxy)phenyl}amino)[1,2,4]triazolo[1,5-a]pyridin-6-yl]phenyl}propanamide] | < 100 | < 1 | < 1 | – |
| COc1cc(C(=O)N2CCOCC2)ccc1Nc1nc2ccc(-c3ccc(NC(=O)Cc4ccc(F)cc4)cc3)cn2n1 [reference compound] | – | – | – | Rat liver microsomes; Fmax [%] [3]: 48% |
| COc1cc(S(C)(=O)=O)ccc1Nc1nc2ccc(-c3ccc(NC(=O)Cc4ccc(F)cc4)cc3)cn2n1 [reference compound] | – | – | – | Dog liver microsomes; Fmax [%] [1]: 10% |
| COc1cc(C(=O)N2CCCC2)ccc1Nc1nc2ccc(-c3ccc(NC(=O)[C@H](C)c4ccc(F)cc4)cc3)cn2n1 [Example01.13, (2R)-2-(4-fluorophenyl)-N-[4-(2-{[2-methoxy-4-(pyrrolidin-1-ylcarbonyl)phenyl]amino}[1,2,4]triazolo[1,5-a]pyridin-6-yl)phenyl]propanamide] | < 400 | < 1 | < 1 | – |
| COC(C(=O)Nc1ccc(-c2ccc3nc(Nc4ccccc4C#N)nn3c2)cc1)c1ccccc1 (centres unmarked) [reference compound] | – | – | – | Rat liver microsomes; Fmax [%] [3]: 19% |
| N#Cc1ccccc1Nc1nc2ccc(-c3ccc(NC(=O)C(F)(F)c4ccccc4)cc3)cn2n1 [reference compound] | – | – | – | Rat liver microsomes; Fmax [%] [3]: 27% |
| N#Cc1ccccc1Nc1nc2ccc(-c3ccc(NC(=O)C(F)c4ccccc4)cc3)cn2n1 (centres unmarked) [reference compound] | – | – | – | Rat liver microsomes; Fmax [%] [3]: 26% |
| N[C@@H](C(=O)Nc1ccc(-c2ccc3nc(Nc4ccc(C(=O)N5CC(F)C5)cc4OCC(F)(F)F)nn3c2)cc1)c1ccc(F)cc1 [Example 01.24, (2R)-2-amino-N-{4-[2-({4-[(3-fluoroazetidin-1-yl)carbonyl]-2-(2,2,2-trifluoroethoxyl)phenyl}amino)[1,2,4]triazolo[1,5-a]pyridin-6-yl]phenyl}-2-(4-fluorophenyl)ethanamide] | < 100 | < 1 | < 1 | – |
| COc1ccccc1Nc1nc2ccc(-c3ccc(NC(=O)Cc4ccccc4)cc3)cn2n1 [reference compound] | – | – | – | Rat liver microsomes; Fmax [%] [3]: 40% |
| O=C(Nc1ccc(-c2ccc3nc(Nc4ccc(C(=O)N5CC(F)C5)cc4OCC(F)(F)F)nn3c2)cc1)[C@H](CO)c1ccc(F)cc1 [Example 01.18, (2S)—N-{4-[2-({4-[(3-fluoroazetidin-1-yl)carbonyl]-2-(2,2,2-trifluoroethoxyl)phenyl}amino)[1,2,4]triazolo[1,5-a]pyridin-6-yl]phenyl}-2-(4-fluorophenyl)-3-hydroxypropanamide] | < 100 | < 1 | < 1 | – |
| CS(=O)(=O)c1ccc(Nc2nc3ccc(-c4ccc(NC(=O)[C@H](N)c5ccc(F)cc5)cc4)cn3n2)c(OCC(F)(F)F)c1 [Example 01.19, (2R)-2-amino-2-(4-fluorophenyl)-N-[4-(2-{[4-(methylsulfonyl)-2-(2,2,2-trifluoroethoxyl)phenyl]amino}[1,2,4]triazolo[1,5-a]pyridin-6-yl)phenyl]ethanamide] | < 200 | < 1 | < 1 | – |
| N#Cc1ccccc1Nc1nc2ccc(-c3ccc(NC(=O)Cc4ccc(F)cc4)cc3)cn2n1 [reference compound] | – | – | – | Rat liver microsomes; Fmax [%] [3]: 40% |
| COc1cc(C(=O)N2CC(F)C2)ccc1Nc1nc2ccc(-c3ccc(NC(=O)[C@H](N)c4ccc(F)cc4)cc3)cn2n1 [Example 01.21, (2R)-2-amino-N-{4-[2-({4-[(3-fluoroazetidin-1-yl)carbonyl]-2-methoxyphenyl}amino)[1,2,4]triazolo[1,5-a]pyridin-6-yl]phenyl}-2-(4-fluorophenyl)ethanamide] | < 200 | < 1 | < 1 | – |
